ChEMBL document CHEMBL1137879, “The development of new bicyclic pyrazole-based cytokine synthesis inhibitors” (Bioorg Med Chem Lett, 2004)

Key:
[1] = test system: THP-1; experiment: Concentration required to inhibit production of Tumor necrosis factor, alpha in LPS-stimulated human monocytic cells (THP-1); format: functional, cell-based
[2] = molecular target: Mitogen-activated protein kinase 14 (Homo sapiens, UniProt Q16539); experiment: Inhibition of human Mitogen-activated protein kinase p38 alpha
Chain of Mitogen-activated protein kinase 14 (Q16539 whole entry): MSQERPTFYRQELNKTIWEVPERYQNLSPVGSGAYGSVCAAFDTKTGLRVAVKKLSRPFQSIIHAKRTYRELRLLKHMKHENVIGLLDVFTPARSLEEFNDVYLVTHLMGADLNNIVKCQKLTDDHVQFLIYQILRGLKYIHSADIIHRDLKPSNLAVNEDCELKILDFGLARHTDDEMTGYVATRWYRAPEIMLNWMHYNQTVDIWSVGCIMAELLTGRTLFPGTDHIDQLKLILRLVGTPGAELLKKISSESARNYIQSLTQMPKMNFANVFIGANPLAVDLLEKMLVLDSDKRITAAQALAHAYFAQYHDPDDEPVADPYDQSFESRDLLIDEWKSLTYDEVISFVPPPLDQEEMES

| SMILES | IC50 [1] | IC50 [2] |
| --- | --- | --- |
| Fc1ccc(-c2c(-c3ccnc(Oc4ccccc4)n3)nn3c2OCCC3)cc1 | > 10000 nM | 6600 nM |
| Fc1ccc(-c2c(-c3ccnc(Oc4ccccc4)n3)nn3c2OCC3)cc1 | 300 nM | 2200 nM |
| C[C@@H](Nc1nccc(-c2nn3c(c2-c2ccc(F)cc2)OCC3)n1)c1ccccc1 | > 2000 nM | 11200 nM |
| COC[C@@H](C)Nc1nccc(-c2nn3c(c2-c2ccc(F)cc2)OCC3)n1 | 1700 nM | 280 nM |
| CCOCn1nnc(-c2ccncc2)c1-c1ccc(F)cc1 | – | 310 nM |
| Oc1[nH]nc(-c2ccncc2)c1-c1ccc(F)cc1 | 3100 nM | 320 nM |
| Fc1ccc(-c2c(-c3ccncc3)nn3c2OCCC3)cc1 | 3100 nM | 460 nM |
| CC[C@@H](C)Nc1nccc(-c2nn3c(c2-c2ccc(F)cc2)OCC3)n1 | 80 nM | 360 nM |
